Each structure is given as a SMILES string. pIC50: −log10 of the molar value.

The test has as its system human platelet suspension. The test is described as follows: U46619-induced platelet aggregation in human platelet suspension. In kind it is cell-based. Particulars: Homo sapiens, Platelet, U46619-induced aggregation, platelet suspension; read-out: P.S(U46619) IC50. How it is done: Human platelet suspension (PS) was prepared according to the method described previously. Briefly, blood sample, freshly obtained from healthy volunteers who had taken no medications during the preceding 2 weeks, was treated with acid citrate/dextrose (ACD) in a volume ratio of 9:1. After centrifugation at 120 g, 25° C. for 9 min, platelet-rich plasma was transferred into another plastic tube and incubated with heparin (6.4 U/ml) as well as prostaglandin E1 (1 μM). Platelets were spun down by centrifugation at 500 g, 25° C. for 8 min and subsequently washed two times with Tyrode solution (NaH2PO4 0.4 mM; NaCl 136.9 mM; KCl […]; NaHCO3 11.9 mM; CaCl2 2 mM; MgCl2 2.1 mM; glucose 11.1 mM; BSA 3.5 mg/ml; pH 7.35-7.4). The washed platelets were finally suspended in Tyrode's solution and the platelet count was adjusted to 3.75×10^8 platelets/ml. For platelet-rich plasma (PRP) preparation, whole blood was anticoagulated with 1/10 vol of sodium citrate (3.8%, w/v) and centrifuged at 150 g, 25° C. for 9 min.
Platelet aggregation was measured turbidimetrically with a Lumi-aggregometer (Payton Scientific) at 37° C. under stirring condition (900 rpm). Platelet suspensions were prewarmed to 37° C. for 2 min in a silicone-treated glass cuvette. Nstpbp5185 was added 3 min before the addition of platelet-aggregation inducers. The extent of platelet aggregation was determined by recording the increase of light transmission relative to that of control (maximal aggregation, as 100%) for 6 min after the addition of inducer. The final volume and platelet count for measuring platelet aggregation were 500 μl and 3×10^8/ml, respectively.
Turning to `Cc1ccc(-c2nc3ccccc3n2Cc2ccccc2F)o1` [Example 13, 1-(o-Fluorobenzyl)-2-(5-methyl-2-furyl)benzimidazole], the negative-log IC50 (pIC50) is 4.88.

As for `Cc1ccc(-c2nc3ccccc3n2Cc2ccccn2)o1` [Example 22, 1-(2-Picoyl)-2-(5-methyl-2-furyl)benzimidazole], the pIC50 was 5.37.

Turning to `Cc1ccc(-c2nc3ccccc3n2Cc2cccnc2)o1` [Example 23, 1-(3-Picoyl)-2-(5-methyl-2-furyl)benzimidazole], the negative logarithm of the IC50 (pIC50) was 5.52.

On to `Cc1ccc(-c2nc3ccccc3n2Cc2ccncc2)o1` [Example 24, 1-(4-Picoyl)-2-(5-methyl-2-furyl)benzimidazole], for which the pIC50 was 4.84.

For `COc1ccc2[nH]c(-c3ccc(C)o3)nc2c1` [Example 25, 5-Methoxy-2-(5-methyl-2-furyl)benzimidazole], the negative logarithm of the IC50 (pIC50) was 4.35.

For the molecule `COc1ccc2nc(-c3ccc(C)o3)n(Cc3ccccc3)c2c1` [Example 25a, 1-benzyl-6-methoxy-2-(5-methyl-2-furyl)benzimidazole], the negative-log IC50 (pIC50) is 5.84.

In the case of `COc1ccc2c(c1)nc(-c1ccc(C)o1)n2Cc1ccccc1` [Example 25b, 1-benzyl-5-methoxy-2-(5-methyl-2-furyl)benzimidazole], the negative logarithm of the IC50 (pIC50) was 5.48.

Consider `COc1ccc2nc(-c3ccc(C)o3)n(Cc3cccc(C)c3)c2c1` [Example 27a, 6-methoxy-1-(3-methylbenzyl)-2-(5-methyl-2-furyl)benzimidazole], for which the negative logarithm of the IC50 (pIC50) is 4.72.

Turning to `COc1ccc2c(c1)nc(-c1ccc(C)o1)n2Cc1cccc(C)c1` [Example 27b, 5-methoxy-1-(3-methylbenzyl)-2-(5-methyl-2-furyl)benzimidazole], the pIC50 is 4.57.

For `Cc1ccc2[nH]c(-c3ccc(C)o3)nc2c1` [Example 29, 5-methyl-2-(5-methyl-2-furyl)benzimidazole], the pIC50 is 4.47.

As to `Cc1ccc(-c2nc3cc(F)ccc3[nH]2)o1` [Example 30], the pIC50 was 4.28.

`Cc1ccc(-c2nc3ccc(F)cc3n2Cc2ccccc2)o1` [Example 30a, 1-benzyl-6-fluoro-2-(5-methyl-2-furyl)benzimidazole]: the pIC50 was 5.17.

For `Cc1ccc(-c2nc3cc(F)ccc3n2Cc2ccccc2Cl)o1` [Example 31a, 5-fluoro-1-(2-chlorobenzyl)-2-(5-methyl-2-furyl)benzimidazole], the pIC50 is 4.64.

Take `Cc1ccc(-c2nc3ccc(F)cc3n2Cc2ccccc2Cl)o1` [Example 31b, 6-fluoro-1-(2-chlorobenzyl)-2-(5-methyl-2-furyl)benzimidazole]: the negative-log IC50 (pIC50) was 4.90.

Consider `Cc1ccc(-c2nc3cc(F)ccc3n2Cc2cccc(Cl)c2)o1` [Example 32a, 5-fluoro-1-(3-chlorobenzyl)-2-(5-methyl-2-furyl)benzimidazole], for which the pIC50 is 5.37.

In the case of `Cc1ccc(-c2nc3ccc(F)cc3n2Cc2cccc(Cl)c2)o1` [Example 32b, 6-fluoro-1-(3-chlorobenzyl)-2-(5-methyl-2-furyl)benzimidazole], the negative-log IC50 (pIC50) is 5.51.

As to `COc1ccc(Cn2c(-c3ccc(C)o3)nc3cc(F)ccc32)cc1` [Example 34a, 5-fluoro-1-(4-methoxybenzyl)-2-(5-methyl-2-furyl)benzimidazole], the pIC50 was 4.46.

As to `COc1ccc(Cn2c(-c3ccc(C)o3)nc3ccc(F)cc32)cc1` [Example 34b, 6-fluoro-1-(4-methoxybenzyl)-2-(5-methyl-2-furyl)benzimidazole], the pIC50 was 4.49.

For `Cc1ccc(-c2nc3cc(F)ccc3n2Cc2cccc(F)c2)o1` [Example 37a, 5-fluoro-1-(3-fluorobenzyl)-2-(5-methyl-2-furyl)benzimidazole], the negative logarithm of the IC50 (pIC50) is 5.77.

On to `Cc1ccc(-c2nc3ccc(F)cc3n2Cc2cccc(F)c2)o1` [Example 37b, 6-fluoro-1-(3-fluorobenzyl)-2-(5-methyl-2-furyl)benzimidazole], for which the pIC50 was 5.93.

For `Cc1ccc(-c2nc3cc(F)ccc3n2Cc2ccccc2F)o1` [Example 38a, 5-fluoro-1-(2-fluorobenzyl)-2-(5-methyl-2-furyl)benzimidazole], the negative-log IC50 (pIC50) is 5.38.

For the molecule `Cc1ccc(-c2nc3ccc(F)cc3n2Cc2ccccc2F)o1` [Example 38b, 6-Fluoro-1-(2-fluorobenzyl)-2-(5-methyl-2-furyl)benzimidazole], the pIC50 was 5.57.

For `Cc1cccc(Cn2c(-c3ccc(C)o3)nc3cc(F)ccc32)c1` [Example 40a, 5-fluoro-1-(3-methylbenzyl)-2-(5-methyl-2-furyl)benzimidazole], the pIC50 is 4.84.

Consider `Cc1cccc(Cn2c(-c3ccc(C)o3)nc3ccc(F)cc32)c1` [Example 40b, 6-Fluoro-1-(3-methylbenzyl)-2-(5-methyl-2-furyl)benzimidazole], for which the pIC50 is 5.27.

On to `Cc1ccc(-c2nc3cc(F)ccc3n2Cc2ccccc2C)o1` [Example 41a, 5-fluoro-1-(2-methylbenzyl)-2-(5-methyl-2-furyl)benzimidazole], for which the pIC50 was 5.58.

With `Cc1ccc(-c2nc3ccc(F)cc3n2Cc2ccccc2C)o1` [Example 41b, 6-fluoro-1-(2-methylbenzyl)-2-(5-methyl-2-furyl)benzimidazole], the negative logarithm of the IC50 (pIC50) is 5.62.

Turning to `Cc1ccc(-c2nc3cc(Cl)ccc3[nH]2)o1` [Example 42], the pIC50 was 4.43.

For the molecule `Cc1ccc(-c2nc3ccc(Cl)cc3n2Cc2ccccc2)o1` [Example 42a, 1-benzyl-6-chloro-2-(5-methyl-2-furyl)benzimidazole], the pIC50 was 5.45.

With `Cc1ccc(-c2nc3cc(Cl)ccc3n2Cc2ccccc2)o1` [Example 42b, 1-benzyl-5-chloro-2-(5-methyl-2-furyl)benzimidazole], the negative-log IC50 (pIC50) is 5.35.

As to `Cc1ccc(-c2nc3ccc(Cl)cc3n2Cc2ccc(Cl)cc2)o1` [Example 43a, 6-chloro-1-(4-chlorobenzyl)-2-(5-methyl-2-furyl) benzimidazole], the pIC50 was 4.44.

On to `Cc1ccc(-c2nc3cc(Cl)ccc3n2Cc2ccc(Cl)cc2)o1` [Example 43b, 5-chloro-1-(4-chlorobenzyl)-2-(5-methyl-2-furyl)benzimidazole], for which the negative logarithm of the IC50 (pIC50) is 3.90.

Turning to `Cc1ccc(-c2nc3cc(Cl)ccc3n2Cc2cccc(Cl)c2)o1` [Example 44a, 5-chloro-1-(3-chlorobenzyl)-2-(5-methyl-2-furyl)benzimidazole], the pIC50 is 5.01.

As to `Cc1ccc(-c2nc3ccc(Cl)cc3n2Cc2cccc(Cl)c2)o1` [Example 44b, 6-chloro-1-(3-chlorobenzyl)-2-(5-methyl-2-furyl)benzimidazole], the negative logarithm of the IC50 (pIC50) was 5.51.

Take `Cc1ccc(-c2nc3cc(Cl)ccc3n2Cc2ccccc2Cl)o1` [Example 45a, 5-chloro-1-(2-chlorobenzyl)-2-(5-methyl-2-furyl)benzimidazole]: the negative-log IC50 (pIC50) is 4.33.

On to `Cc1ccc(-c2nc3ccc(Cl)cc3n2Cc2ccccc2Cl)o1` [Example 45b, 6-chloro-1-(2-chlorobenzyl)-2-(5-methyl-2-furyl)benzimidazole], for which the pIC50 was 5.12.

As to `Cc1ccc(-c2nc3ccc(Cl)cc3n2Cc2ccc(F)cc2)o1` [Example 46a, 6-chloro-1-(4-fluorobenzyl)-2-(5-methyl-2-furyl)benzimidazole], the pIC50 is 5.50.

With `Cc1ccc(-c2nc3cc(Cl)ccc3n2Cc2ccc(F)cc2)o1` [Example 46b, 5chloro-1-(4-fluorobenzyl)-2-(5-methyl-2-furyl)benzimidazole], the pIC50 is 5.02.

Turning to `Cc1ccc(-c2nc3cc(Cl)ccc3n2Cc2cccc(F)c2)o1` [Example 47a, 5-chloro-1-(3-fluorobenzyl)-2-(5-methyl-2-furyl)benzimidazole], the pIC50 was 5.26.

Regarding `Cc1ccc(-c2nc3ccc(Cl)cc3n2Cc2cccc(F)c2)o1` [Example 47b, 6-chloro-1-(3-fluorobenzyl)-2-(5-methyl-2-furyl)benzimidazole], the negative logarithm of the IC50 (pIC50) is 5.35.

With `Cc1ccc(-c2nc3cc(Cl)ccc3n2Cc2ccccc2F)o1` [Example 48a, 5-chloro-1-(2-fluorobenzyl)-2-(5-methyl-2-furyl)benzimidazole], the negative-log IC50 (pIC50) was 5.17.

On to `Cc1ccc(-c2nc3ccc(Cl)cc3n2Cc2ccccc2F)o1` [Example 48b, 6-chloro-1-(2-fluorobenzyl)-2-(5-methyl-2-furyl)benzimidazole], for which the negative logarithm of the IC50 (pIC50) was 5.51.

For `COc1ccc(Cn2c(-c3ccc(C)o3)nc3ccc(Cl)cc32)cc1` [Example 49b, 6-chloro-1-(4-methoxybenzyl)-2-(5-methyl-2-furyl)benzimidazole], the pIC50 is 4.53.

`COc1cccc(Cn2c(-c3ccc(C)o3)nc3cc(Cl)ccc32)c1` [Example 50a, 5-chloro-1-(3-methoxybenzyl)-2-(5-methyl-2-furyl)benzimidazole]: the negative-log IC50 (pIC50) is 4.42.

In the case of `COc1cccc(Cn2c(-c3ccc(C)o3)nc3ccc(Cl)cc32)c1` [Example 50b, 6-chloro-1-(3-methoxybenzyl)-2-(5-methyl-2-furyl)benzimidazole], the pIC50 is 4.56.

For the molecule `Cc1ccc(Cn2c(-c3ccc(C)o3)nc3ccc(Cl)cc32)cc1` [Example 51a, 6-chloro-1-(4-methylbenzyl)-2-(5-methyl-2-furyl)benzimidazole], the pIC50 is 4.27.
